Experimental data from article PMC8162069 (Chemical Science, 2020).

Target: HepG (Trichoderma virens, UniProt G9NDK9)
Experiment: X-ray crystal structure
Assay type: binding
Details: active site of each subunit

HepG, sequence (G9NDK9 1-336): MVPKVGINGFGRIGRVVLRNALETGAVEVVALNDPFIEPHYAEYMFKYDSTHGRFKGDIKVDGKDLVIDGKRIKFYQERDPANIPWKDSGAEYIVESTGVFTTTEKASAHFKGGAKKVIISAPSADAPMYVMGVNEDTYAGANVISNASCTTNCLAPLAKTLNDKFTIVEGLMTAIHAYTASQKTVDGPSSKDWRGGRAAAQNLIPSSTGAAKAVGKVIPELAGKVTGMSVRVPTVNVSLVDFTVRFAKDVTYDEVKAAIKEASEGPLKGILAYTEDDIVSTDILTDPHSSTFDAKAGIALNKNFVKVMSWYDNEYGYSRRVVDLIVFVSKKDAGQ

NC(=O)c1ccc[n+]([C@@H]2O[C@H](COP(=O)(O)OP(=O)(O)OC[C@H]3O[C@@H](n4cnc5c(N)ncnc54)[C@H](O)[C@@H]3O)[C@@H](O)[C@H]2O)c1 [NAD^+]
X-ray crystal structure: Each subunit of the tetrameric HepG contains a NAD^+ cofactor
